Measurements: patent US4268510A, “1,3-Benzoxazine trichloromethyl derivatives, compositions and use” (Imperial Chemical Industries Limited, priority 1978, dated 1981)
Values after ≈ are worked out from the molar mass of the structure shown.

Key:
[1] = system: rumen metabolism; conditions: known prior art, administered to ruminant animals; cited from earlier work
[2] = system: methane production from ruminal fluid; assay: in vitro assay of inhibition of methane production from ruminal fluid; assay type: cell-based, steers (pooled rumen fluid); conditions: in vitro, diluted rumen fluid with dried ground hay, pH 6.9-7.0, 39° C., 15-16 hours; read-out: ED50, concentration of the test compound required to produce a 50% reduction in methane production
Method: Rumen fluid is collected on a regular routine basis from two steers, which are fed on the same hay-plus-concentrate diet. Sampling time is standardised as far as possible, and the fluid from the two animals is pooled on a 50/50 basis. Large particulate matter is removed by filtering the pooled fluid through four layers of muslin cloth. The filtrate is then diluted in the ratio of one volume of filtrate to three volumes of an artificial rumen fluid (prepared as described by G. L. Bales et al., Journal of Dairy Science, 1976, volume 59, page 1850, but omitting acetic acid), and the pH of the mixture is adjusted to 6.9-7.0 with saturated aqueous sodium carbonate solution. Aliquots (50 ml.) of this mixture are dispensed into 100 ml. conical flasks containing dried ground hay (0.5 g.), and each flask is used to test a test compound at a particular concentration.
The test compound is added to the conical flask as a solution in ethanol, the flask is flushed with carbon dioxide gas, stoppered with a suba-seal, and incubated at 39° C. for 15-16 hours. After one hour, a narrow bore needle is inserted through the suba-seal to relieve the gas pressure, and the needle is withdrawn 30 minutes before the incubation is ended. Fermentation is then stopped by placing the flask in ice, and after 15 minutes cooling, the gas over the liquid is analysed for methane by gas chromatography, and the concentration of the test compound required to produce a 50% reduction in methane production (ED50 in μg./ml.) is calculated.
The test of methane inhibition described in Example 12 was repeated for various other compounds, to give the results shown below. The results are expressed as the percentage inhibition of methane production caused by 1 μg./ml. of a test compound, except for those compounds indicated by *, for which 3 μg./ml. was used.

Row | IC50 [2] [µg/mL] | SMILES | effect on rumen metabolism (reducing methane production) [1]
1 | – | NC(=O)C(Cl)(Cl)Cl [trichloroacetamide] | beneficial effect on rumen metabolism
2 | – | O=CC(Cl)(Cl)Cl [chloral] | beneficial effect on rumen metabolism
3 | 0.3 (≈ 0.853 µM) | CCCNC(=O)c1ccc2c(c1)C(=O)NC(C(Cl)(Cl)Cl)O2 (stereo not drawn) [drawing 6; R3=CH3 (CH2)2 NH . CO; R5=H, 3,4-dihydro-4-oxo-N-propyl-2-trichloromethyl-2H-benzo[e]-[1,3]-oxazine-6-carboxamide] | –
